Test results as given in ChEMBL document CHEMBL4002640, “Discovery of MK-1832, a Kv1.5 inhibitor with improved selectivity and pharmacokinetics” (Bioorg Med Chem Lett, 2017).
The source made the active and inactive calls.

Tests used:
[1] = Clearance in rhesus monkey; format: ADME, Macaca mulatta; conditions: in vivo
Canis familiaris [2] = experiment: Toxicity in anesthetized Mongrel dog assessed as effect on PR interval at 0.3 to 100 ug/kg/min, iv administered as 60 mins infusion measured up to 60 mins by electrophysiology method; format: organism-based, Canis lupus familiaris; conditions: in vivo, 1 h
[3] = Volume of distribution at steady state in rhesus monkey; format: ADME, Macaca mulatta; conditions: in vivo, read-out: Vdss
Canis familiaris [4] = experiment: Toxicity in anesthetized Mongrel dog assessed as effect on QTc interval at 0.3 to 100 ug/kg/min, iv administered as 60 mins infusion measured up to 60 mins by electrophysiology method; format: organism-based, Canis lupus familiaris; conditions: in vivo, 1 h
[5] = molecular target: T1, Potassium voltage-gated channel subfamily A member 5 (Homo sapiens, UniProt P22460); experiment: Inhibition of Kv1.5 (unknown origin)
T1 sequence (P22460 whole entry, the tested form may be a part): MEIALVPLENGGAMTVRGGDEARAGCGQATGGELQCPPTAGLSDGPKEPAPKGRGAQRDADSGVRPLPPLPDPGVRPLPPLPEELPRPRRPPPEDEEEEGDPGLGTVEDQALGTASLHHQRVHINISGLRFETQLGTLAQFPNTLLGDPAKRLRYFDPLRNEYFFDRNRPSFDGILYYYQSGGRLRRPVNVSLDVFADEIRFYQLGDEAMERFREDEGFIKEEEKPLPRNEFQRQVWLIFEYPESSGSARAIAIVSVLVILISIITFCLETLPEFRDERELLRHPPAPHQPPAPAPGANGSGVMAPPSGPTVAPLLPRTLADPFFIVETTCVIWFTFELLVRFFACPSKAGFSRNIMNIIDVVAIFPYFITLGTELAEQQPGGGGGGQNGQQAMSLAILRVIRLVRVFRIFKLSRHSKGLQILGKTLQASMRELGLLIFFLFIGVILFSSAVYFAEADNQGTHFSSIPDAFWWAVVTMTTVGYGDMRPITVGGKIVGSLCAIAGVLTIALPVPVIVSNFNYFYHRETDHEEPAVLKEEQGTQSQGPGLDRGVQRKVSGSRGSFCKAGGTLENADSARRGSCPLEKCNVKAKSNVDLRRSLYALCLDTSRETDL

Canis familiaris [6] = experiment: Toxicity in anesthetized Mongrel dog assessed as effect on mean arterial pressure at 0.3 to 100 ug/kg/min, iv administered as 60 mins infusion measured up to 60 mins by electrophysiology method; format: organism-based, Canis lupus familiaris; conditions: in vivo, 1 h
[7] = Clearance in dog; format: ADME, Canis lupus familiaris; conditions: in vivo
[8] = Protein binding in dog plasma; format: ADME, cell-free, Canis lupus familiaris; conditions: read-out: PPB (converted)
[9] = Oral bioavailability in dog; format: ADME, organism-based, Canis lupus familiaris; conditions: in vivo
Canis familiaris [10] = experiment: Toxicity in anesthetized Mongrel dog assessed as effect on heart rate at 0.3 to 100 ug/kg/min, iv administered as 60 mins infusion measured up to 60 mins by electrophysiology method; format: organism-based, Canis lupus familiaris; conditions: in vivo, 1 h
[11] = molecular target: T2, A-type voltage-gated potassium channel KCND3 (Homo sapiens, UniProt Q9UK17); experiment: Inhibition of Kv4.3 (unknown origin) assessed as reduction in transient outward potassium current by high throughput clamp method
T2 sequence (Q9UK17 whole entry): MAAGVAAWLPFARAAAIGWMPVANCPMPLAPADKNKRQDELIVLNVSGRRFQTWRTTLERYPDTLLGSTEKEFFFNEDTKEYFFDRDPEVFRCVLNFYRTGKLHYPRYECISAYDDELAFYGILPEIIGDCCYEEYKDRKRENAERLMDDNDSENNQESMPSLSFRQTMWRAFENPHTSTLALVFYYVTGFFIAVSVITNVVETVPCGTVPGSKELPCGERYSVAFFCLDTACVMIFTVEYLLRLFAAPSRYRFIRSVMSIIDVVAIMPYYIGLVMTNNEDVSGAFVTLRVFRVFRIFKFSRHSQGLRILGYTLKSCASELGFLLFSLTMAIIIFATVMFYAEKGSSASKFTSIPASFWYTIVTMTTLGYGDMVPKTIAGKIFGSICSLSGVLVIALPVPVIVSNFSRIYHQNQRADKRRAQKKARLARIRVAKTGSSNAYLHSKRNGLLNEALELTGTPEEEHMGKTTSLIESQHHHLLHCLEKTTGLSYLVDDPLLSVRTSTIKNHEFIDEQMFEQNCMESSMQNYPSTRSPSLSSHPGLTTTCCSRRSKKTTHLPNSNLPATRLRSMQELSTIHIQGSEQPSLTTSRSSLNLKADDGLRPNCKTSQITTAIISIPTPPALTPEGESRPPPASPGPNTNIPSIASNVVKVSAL

[12] = molecular target: T3, Voltage-gated inwardly rectifying potassium channel KCNH2 (Homo sapiens, UniProt Q12809); experiment: Displacement of [3H]-MK499 from human ERG IKr channel expressed in HEK293 cell membranes
T3 sequence (Q12809 whole entry): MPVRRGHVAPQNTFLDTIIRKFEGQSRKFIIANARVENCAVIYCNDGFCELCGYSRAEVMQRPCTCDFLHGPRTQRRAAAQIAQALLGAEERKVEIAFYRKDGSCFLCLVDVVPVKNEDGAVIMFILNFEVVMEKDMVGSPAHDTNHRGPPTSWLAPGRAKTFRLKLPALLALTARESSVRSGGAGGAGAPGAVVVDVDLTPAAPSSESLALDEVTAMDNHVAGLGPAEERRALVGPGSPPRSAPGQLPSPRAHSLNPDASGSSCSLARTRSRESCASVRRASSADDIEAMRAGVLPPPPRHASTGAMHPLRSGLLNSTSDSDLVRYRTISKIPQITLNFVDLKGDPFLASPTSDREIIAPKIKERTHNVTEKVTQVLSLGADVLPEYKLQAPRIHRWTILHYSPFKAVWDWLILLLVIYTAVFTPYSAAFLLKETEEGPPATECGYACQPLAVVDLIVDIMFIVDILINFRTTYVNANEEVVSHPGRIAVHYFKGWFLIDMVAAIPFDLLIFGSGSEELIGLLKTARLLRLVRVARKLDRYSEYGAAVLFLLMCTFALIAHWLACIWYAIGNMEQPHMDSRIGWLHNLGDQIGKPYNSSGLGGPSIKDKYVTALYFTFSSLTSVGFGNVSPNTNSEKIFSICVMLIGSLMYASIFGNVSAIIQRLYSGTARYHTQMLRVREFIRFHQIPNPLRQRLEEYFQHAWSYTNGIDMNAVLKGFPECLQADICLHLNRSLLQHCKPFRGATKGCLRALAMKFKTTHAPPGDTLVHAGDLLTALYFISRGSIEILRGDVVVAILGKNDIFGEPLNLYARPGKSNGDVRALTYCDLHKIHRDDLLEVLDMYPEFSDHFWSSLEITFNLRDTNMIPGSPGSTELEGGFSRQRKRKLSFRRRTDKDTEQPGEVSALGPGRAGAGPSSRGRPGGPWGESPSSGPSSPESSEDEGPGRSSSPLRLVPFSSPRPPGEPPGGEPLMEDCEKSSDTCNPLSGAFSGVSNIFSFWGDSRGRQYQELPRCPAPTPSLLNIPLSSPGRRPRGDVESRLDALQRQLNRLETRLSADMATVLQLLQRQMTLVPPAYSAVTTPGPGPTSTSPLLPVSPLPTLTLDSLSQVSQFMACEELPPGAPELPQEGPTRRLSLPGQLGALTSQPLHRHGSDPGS

[13] = Terminal half-life in rhesus monkey; format: ADME, Macaca mulatta; conditions: in vivo, read-out: beta t1/2 (converted)
[14] = Metabolic stability in human hepatocytes up to 3 hrs by mass spectrometry; format: ADME, cell-based, Hepatocyte
[15] = molecular target: Sodium channel protein type 5 subunit alpha (Homo sapiens, UniProt Q14524); experiment: Inhibition of SCN5a (unknown origin) assessed as reduction in sodium current at 10 uM by voltage/ion probe reader method
Sodium channel protein type 5 subunit alpha, sequence (Q14524 whole entry): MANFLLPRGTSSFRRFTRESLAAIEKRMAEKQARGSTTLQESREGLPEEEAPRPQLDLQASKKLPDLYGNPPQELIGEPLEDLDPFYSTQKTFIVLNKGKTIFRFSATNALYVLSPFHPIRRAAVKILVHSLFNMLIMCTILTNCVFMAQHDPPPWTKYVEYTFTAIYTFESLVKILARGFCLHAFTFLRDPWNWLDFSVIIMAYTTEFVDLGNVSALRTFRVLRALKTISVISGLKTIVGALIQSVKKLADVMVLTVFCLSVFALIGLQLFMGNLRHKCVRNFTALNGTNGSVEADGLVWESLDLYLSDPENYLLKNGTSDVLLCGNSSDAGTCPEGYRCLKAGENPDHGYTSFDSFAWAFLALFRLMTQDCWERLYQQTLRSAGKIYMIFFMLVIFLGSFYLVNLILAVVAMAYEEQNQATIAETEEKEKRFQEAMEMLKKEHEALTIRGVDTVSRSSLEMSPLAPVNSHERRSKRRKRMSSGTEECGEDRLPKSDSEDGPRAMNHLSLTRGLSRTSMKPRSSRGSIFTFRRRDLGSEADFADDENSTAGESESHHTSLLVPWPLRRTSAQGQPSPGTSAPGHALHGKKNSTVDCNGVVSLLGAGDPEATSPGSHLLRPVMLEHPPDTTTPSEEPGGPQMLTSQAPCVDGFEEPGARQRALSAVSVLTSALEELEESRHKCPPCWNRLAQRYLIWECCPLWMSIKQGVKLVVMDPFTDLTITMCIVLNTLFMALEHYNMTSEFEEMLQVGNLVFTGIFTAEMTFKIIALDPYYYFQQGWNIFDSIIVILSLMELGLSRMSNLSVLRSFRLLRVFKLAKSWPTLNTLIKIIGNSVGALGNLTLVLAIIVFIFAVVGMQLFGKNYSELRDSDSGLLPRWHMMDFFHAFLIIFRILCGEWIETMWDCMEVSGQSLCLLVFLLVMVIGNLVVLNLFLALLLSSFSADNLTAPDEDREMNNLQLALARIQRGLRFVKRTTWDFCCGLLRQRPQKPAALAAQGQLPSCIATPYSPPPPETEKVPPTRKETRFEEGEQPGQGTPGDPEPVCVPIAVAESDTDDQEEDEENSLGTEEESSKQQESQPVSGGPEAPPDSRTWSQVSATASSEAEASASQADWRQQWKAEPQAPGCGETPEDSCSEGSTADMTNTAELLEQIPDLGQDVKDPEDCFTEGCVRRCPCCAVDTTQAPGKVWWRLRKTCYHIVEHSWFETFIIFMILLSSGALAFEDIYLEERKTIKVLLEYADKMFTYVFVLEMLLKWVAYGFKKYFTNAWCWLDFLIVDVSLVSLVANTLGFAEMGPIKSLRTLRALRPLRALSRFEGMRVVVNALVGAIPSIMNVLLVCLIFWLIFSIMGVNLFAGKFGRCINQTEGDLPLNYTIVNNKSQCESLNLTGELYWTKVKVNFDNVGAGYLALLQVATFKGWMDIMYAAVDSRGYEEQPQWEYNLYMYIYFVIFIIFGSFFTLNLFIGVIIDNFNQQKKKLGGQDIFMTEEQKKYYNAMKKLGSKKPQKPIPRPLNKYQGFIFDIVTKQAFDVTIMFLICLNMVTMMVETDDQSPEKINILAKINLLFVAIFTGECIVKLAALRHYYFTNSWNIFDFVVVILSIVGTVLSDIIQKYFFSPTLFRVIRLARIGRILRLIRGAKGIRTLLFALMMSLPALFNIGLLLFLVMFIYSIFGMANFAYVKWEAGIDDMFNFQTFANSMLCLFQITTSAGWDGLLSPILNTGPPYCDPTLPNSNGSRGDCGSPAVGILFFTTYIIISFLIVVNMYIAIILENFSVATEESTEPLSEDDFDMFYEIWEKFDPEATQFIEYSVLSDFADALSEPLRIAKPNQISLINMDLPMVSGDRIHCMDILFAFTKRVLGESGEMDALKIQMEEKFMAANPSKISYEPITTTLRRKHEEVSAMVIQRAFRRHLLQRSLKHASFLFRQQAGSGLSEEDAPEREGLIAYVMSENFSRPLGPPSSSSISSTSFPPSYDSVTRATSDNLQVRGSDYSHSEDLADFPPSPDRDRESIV

[16] = Volume of distribution at steady state in rat; format: ADME; conditions: in vivo, read-out: Vdss
[17] = Protein binding in rhesus monkey plasma; format: ADME, cell-free, Macaca mulatta; conditions: read-out: PPB (converted)
Canis familiaris [18] = experiment: Toxicity in anesthetized Mongrel dog assessed as effect on QRS interval at 0.3 to 100 ug/kg/min, iv administered as 60 mins infusion measured up to 60 mins by electrophysiology method; format: organism-based, Canis lupus familiaris; conditions: in vivo, 1 h
Canis familiaris [19] = experiment: Toxicity in anesthetized Mongrel dog assessed as effect on ventricular refractory period at 0.3 to 100 ug/kg/min, iv administered as 60 mins infusion measured up to 60 mins by electrophysiology method; format: organism-based, Canis lupus familiaris; conditions: in vivo, 1 h
KCNQ1/KCNE1 (IKs) [20] = molecular target: T4, KCNQ1/KCNE1 (IKs) (Homo sapiens, UniProt P15382+P51787); experiment: Inhibition of human KCNQ1/KCNE1 expressed in HEK293 cells assessed as reduction in slowly activating delayed rectifier cardiac potassium current at 10 uM by patch clamp electrophysiology method; format: cell-based; conditions: HEK293 cells expressing human KCNQ1/KCNE1
T4 sequence (P51787 whole entry): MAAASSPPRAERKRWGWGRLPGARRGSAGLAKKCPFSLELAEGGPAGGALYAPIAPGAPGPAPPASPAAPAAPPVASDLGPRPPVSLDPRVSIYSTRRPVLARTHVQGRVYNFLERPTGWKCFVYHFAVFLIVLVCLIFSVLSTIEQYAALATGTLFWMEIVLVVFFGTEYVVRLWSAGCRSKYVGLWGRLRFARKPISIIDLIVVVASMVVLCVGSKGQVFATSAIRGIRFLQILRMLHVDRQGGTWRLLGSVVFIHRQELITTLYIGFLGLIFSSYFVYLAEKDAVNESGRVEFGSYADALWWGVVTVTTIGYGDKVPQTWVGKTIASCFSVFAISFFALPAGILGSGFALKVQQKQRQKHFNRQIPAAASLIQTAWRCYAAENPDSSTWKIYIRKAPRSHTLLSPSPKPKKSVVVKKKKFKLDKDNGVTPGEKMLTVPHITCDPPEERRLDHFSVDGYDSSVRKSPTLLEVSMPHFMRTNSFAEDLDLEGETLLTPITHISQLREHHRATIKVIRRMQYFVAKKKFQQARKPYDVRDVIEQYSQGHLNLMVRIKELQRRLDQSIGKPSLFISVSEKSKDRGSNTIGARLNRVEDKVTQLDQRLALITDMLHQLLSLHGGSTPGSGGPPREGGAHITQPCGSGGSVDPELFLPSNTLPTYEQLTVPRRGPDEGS

Homo sapiens = organism: Homo sapiens; experiment: Substrate activity at human P-gp assessed as efflux ratio
Canis familiaris [21] = experiment: Selectivity index, ratio of compound effect for anti-atrial fibrillation activity in iv dosed anesthetized Mongrel dog assessed as increase in atrial refractory period to compound effect on ventricular refractory period in iv dosed anesthetized Mongrel dog; set-up: species or system Canis lupus familiaris
[22] = Clearance in rat; format: ADME; conditions: in vivo
[23] = Terminal half-life in dog; format: ADME, Canis lupus familiaris; conditions: in vivo, read-out: beta t1/2 (converted)
[24] = molecular target: T1, Potassium voltage-gated channel subfamily A member 5; experiment: Inhibition of Kv1.5 mediated ultra-rapid delayed rectifier current Ikur in human atrial myocytes by voltage-patch clamp electrophysiology method; format: cell-based
[25] = Oral bioavailability in rhesus monkey; format: ADME, organism-based, Macaca mulatta; conditions: in vivo
Canis familiaris [26] = experiment: Effect on ventricular refractory period in iv dosed anesthetized Mongrel dog assessed as threshold change in ventricular refractory period at 400 ms of basic cycle length administered as 60 mins infusion measured up to 60 mins by electrophysiology method; format: ADME, organism-based, Canis lupus familiaris; conditions: in vivo, 1 h
[27] = Protein binding in rat plasma; format: ADME, cell-free; conditions: read-out: PPB (converted)
Canis familiaris [28] = experiment: Anti-atrial fibrillation activity in anesthetized Mongrel dog assessed as increase in atrial refractory period at 400 ms of basic cycle length at 0.3 to 100 ug/kg/min, iv administered as 60 mins infusion measured up to 60 mins by electrophysiology method; format: functional, organism-based; conditions: Canis lupus familiaris
[29] = molecular target: T3, Voltage-gated inwardly rectifying potassium channel KCNH2; experiment: Inhibition of human ERG expressed in CHOK1 cells assessed as reduction in rapidly activating delayed rectifier cardiac potassium current by whole-cell voltage-patch clamp assay; format: cell-based
KCNQ1/KCNE1 (IKs) [30] = molecular target: T4, KCNQ1/KCNE1 (IKs); experiment: Inhibition of human KCNQ1/KCNE1 expressed in HEK293 cells assessed as reduction in slowly activating delayed rectifier cardiac potassium current at 30 uM by patch clamp electrophysiology method; format: cell-based; conditions: HEK293 cells expressing human KCNQ1/KCNE1
[31] = Volume of distribution at steady state in dog; format: ADME, Canis lupus familiaris; conditions: in vivo, read-out: Vdss
Canis familiaris [32] = experiment: Anti-atrial fibrillation activity in iv dosed anesthetized Mongrel dog assessed as increase in atrial refractory period at 400 ms of basic cycle length administered as 60 mins infusion measured up to 60 mins by electrophysiology method; format: functional, Canis lupus familiaris
[33] = Terminal half-life in rat; format: ADME; conditions: in vivo, read-out: beta t1/2 (converted)
[34] = Oral bioavailability in rat; format: ADME, organism-based; conditions: in vivo
[35] = Selectivity index, ratio of IC50 for human KCNQ1/KCNE1 IKs channel expressed in HEK293 cells to IC50 for Kv1.5 IKur channel in human atrial myocytes
Canis familiaris [36] = experiment: Toxicity in anesthetized Mongrel dog assessed as effect on ECG at 0.3 to 100 ug/kg/min, iv administered as 60 mins infusion measured up to 60 mins by electrophysiology method; format: organism-based, Canis lupus familiaris; conditions: in vivo, 1 h

clearance [1]: 14.3 mL/min/kg | Vd [3]: 0.99 L/kg | IC50 [5]: 0.029 to 2.92 µM | clearance [7]: 3.7 mL/min/kg | fraction unbound [8]: 0.16 | bioavailability [9]: 93% | IC50 [11]: 8.3 µM | half-life [13]: 1 h | Stability [14]: Unstable | Vd [16]: 1.59 L/kg | fraction unbound [17]: 0.08 | inhibition at 10 µM (KCNQ1/KCNE1 (IKs) [20]): 5.7% | Ratio (Homo sapiens): 30 | clearance [22]: 16.7 mL/min/kg | half-life [23]: 2.6 h | IC50 [24]: 0.011 µM | bioavailability [25]: 21% | Activity (Canis familiaris [26]): > 25 µM | fraction unbound [27]: 0.21 | inhibition at 30 µM (KCNQ1/KCNE1 (IKs) [30]): 7% | Vd [31]: 0.81 L/kg | half-life [33]: 1.6 h | bioavailability [34]: 34%
Compound: O[C@@H](c1cccnc1-c1cc(Cl)cc(Cl)c1)C(c1cccnc1)c1cccnc1
Activity (Canis familiaris [2]): Non-Toxic | Activity (Canis familiaris [4]): Non-Toxic | Activity (Canis familiaris [6]): Non-Toxic | Activity (Canis familiaris [10]): Non-Toxic | IC50 [12]: > 30 µM | inhibition (INH) [15]: Not Active | Activity (Canis familiaris [18]): Non-Toxic | Activity (Canis familiaris [19]): Non-Toxic | Selectivity Index (Canis familiaris [21]): >1800 | Activity (Canis familiaris [28]): Active | IC50 [29]: 128 µM | EC10 (Canis familiaris [32]): 0.014 µM | Ratio IC50 [35]: >3000 | Activity (Canis familiaris [36]): Non-Toxic
